The text below walks through data of patent publication US4231925A, “Pentapeptides with analgesic activity on peripheral administration” (American Home Products Corporation, priority 1979, dated 1980).

“And” between values parts separate entries of the source, which are not always exact repeats. Equal values may be shown once. Read-outs that look alike come from different tables or passages of the source.

Data set [1] has as its system rat brain opiate receptors. Kind of data set: in vitro opiate receptor assay, 3H-naloxone displacement in rat brain homogenate. The format is binding. To be noted: relative to morphine = 1.0.
Experimental: In this procedure, a fasted male Charles River CD rat, 190-290 g., is killed with a guillotine after carbon-dioxideanesthesia, and the brain is rapidly removed. After the cerebellum is excised, the brain is homogenized in 100 vol. (usually 150 ml.) iced 0.05 M Trizma buffer (pH 7.4 at 25°) 0.1 M in sodium chloride in a Brinkman Polytron for 1 min. at setting 3. The homogenate is centrifuged at 49,500 g for 15 min. (Sorvall SS-34 rotor at 19,500 rpm) in 50 ml. propylene tubes. The supernatant is decanted, and the pellets are resuspended in iced buffer to the original volume by use of a motor driven pestle tissue grinder. The homogenate is centrifuged again and resuspended in 10 ml. iced buffer.
Homogenates and samples ae equilibrated at room temperature for 5 minutes before adding 0.05 ml. 3 H-naloxone solution to give a total volume of 0.50 ml. for all tubes.
The assay tubes are hand-shaken every 15 min. for an incubation time of 60 min. at 0° C. The contents are filtered under reduced pressure through Whatman glass-fiber circles (GF/B, 2.4 cm. dia.). […] The vials are hand-shaken immediately, after 30 min., at the end of the day, stored overnight, hand-shaken, and radioactivity is determined by liquid-sintillation spectrometry.
The assay is calculated as follows: […]
Data set [2] deals with phenylbenzoquinone (PBQ)-induced writhing. The data set is described as follows: phenylbenzoquinone-induced writhing test, subcutaneous administration. The format is in vivo, mice. As for the experimental part:
The procedure is a modification of the method described by Siegmund and Cadmus, Proc. Soc. Exp. Biol. Med., 95, 729-731 (1957), which is used to evaluate both narcotic and non-narcotic analgesics. […] Laboratory mice of either sex, weighing 18-27 g. are used in groups of ten as test subjects. The test compound is administered first in an initial dose determined by the potency of the class of compounds and the route of administration. The test is run first in one group of mice at a relatively high dose to establish significant analgesic activity [see (1) in Table I]. When analgesic activity is observed in four or more of this group, a second test is run on at least three groups of mice to determine the most appropriate dose/time response to use in the subsequent dose response test [see (2) in Table I]. Finally, the ED50 dose is determined by administering different doses to several groups of mice and observing their reaction during the time interval established by the dose/time test [see (3)-(9) in Table I]. Note that the time interval is designated by the median time of the chosen response observation period (e.g. 15, 30, or 45 minutes). In testing each group of mice according to the above protocol, all mice in the group first are administered the selected dose of the test compound solution. Five minutes prior to the observation period (viz. at 5, 20, or 35 minutes after subcutaneous administration of the test compound of at 20, 50, or 80 minutes after oral administration of the test compound) all mice in the group receive 0.25 ml., intraperitoneally, of the writhing agonist (i.e. 0.02% solution of PBQ). At the chosen time interval, the group of mice is observed for a period of ten minutes for writhing.
(In general: In writhing tests, fewer writhes than in controls are read as antinociception.)

Another data set concerns tail-flick. Particulars: rat, cited from earlier work.
For data set [3] the following is noted: oral administration; cited from earlier work.
For the next data set, the system named is opiate receptor. To be noted: electrically stimulated guinea pig ileum; cited from earlier work.
For data set [4] the following is noted: intracerebroventricularly, intravenously, or subcutaneously; cited from earlier work.
For data set [5] the following is noted: rat lateral brain ventricle; cited from earlier work.
For data set [6] the following is noted: e.g. subcutaneously or intravenously; cited from earlier work.
For data set [7] the following is noted: human blood plasma; cited from earlier work.
The conditions of data set [8]: rat blood plasma; cited from earlier work.

The ED50 is the dose that gives a 50% effect, or the effect in half of the subjects. Read a low ED50 as an effect at a small dose. As to `CN[C@@H](Cc1ccc(O)cc1)C(=O)N[C@H](CCSC)C(=O)NCC(=O)N(C)[C@@H](Cc1ccccc1)C(=O)N[C@H](CO)C(N)=O` [Example 1, N-Methyl-Tyrosyl-D-Methionyl-Glycyl-N-Methyl-Phenylalanyl-D-Serinamide . Acetate], the “Relative Displacement Potency” value in [1] is listed as 14; in data set [1] (listed as Example I), “in excess of ten times”. Also, the “No. Analgesic / Total No. Tested” value in data set [2] ((1) 10.0 mg/kg subcutaneous, 15 minutes, 10 mg/kg) was 10/10 and 10 of 10; in data set [2] ((2) dose/time test, 0.1 mg/kg subcutaneous, 15 minutes), 4/10; in [2] ((2) dose/time test, 0.1 mg/kg subcutaneous, 30 minutes) it was 3/10; in data set [2] ((2) dose/time test, 0.1 mg/kg subcutaneous, 45 minutes) it was 1/10; in data set [2] ((3) 0.032 mg/kg subcutaneous, 15 minutes) it was 0/10; in data set [2] ((4) 0.056 mg/kg subcutaneous, 15 minutes), 3/10. Further, the “No. Analgesic / Total No. Tested” value in data set [2] ((5) dose response test, 0.1 mg/kg subcutaneous, 15 minutes) is 2/10; in data set [2] ((6) 0.178 mg/kg subcutaneous, 15 minutes), 6/10; in [2] ((7) 0.316 mg/kg subcutaneous, 15 minutes), 5/10; in data set [2] ((8) 0.56 mg/kg subcutaneous, 15 minutes) it was 4/10; in data set [2] ((9) 1.00 mg/kg subcutaneous, 15 minutes, 1 mg/kg), 8/10 and 8 of 10. The 50% effective dose (ED50) in [2] (subcutaneous, mice, complete inhibition of PBQ-induced writhing, 15 minutes) was 0.33 mg/kg.

In the case of `CN1CC[C@]23c4c5ccc(O)c4O[C@H]2[C@@H](O)C=C[C@H]3[C@H]1C5` [Morphine], the duration of analgesia entry in the data set with tail-flick (morphine comparison) was “an hour or more”.

As for “(D-Ala^2, Me-Phe^4, Met(0)^5)-enkephalin”, the analgesic activity result in [3] was “elicited analgesic activity”.

Turning to (D-Ala^2, Met(O)^5)-enkephalin, the analgesic activity result in data set [3] was “elicited analgesic activity”.

With “(D-Met^2, Leu^5) enkephalin, methyl ester”, the “opiate receptor agonist activity” value with opiate receptor is on record as “strong opiate receptor agonist activity”.

Consider (D-Met^2, Pro^5)-enkephalin amide, for which, in data set [4], the analgesic activity result is recorded as “elicits analgesic activity”.

For (Ser^5)-enkephalin, the analgesic activity result in data set [5] was “eliciting analgesic activity”.

As for “H--Tyr--Gly--Gly--Phe--Leu--OH [Leu-enkephalin]”, in the data set on tail-flick (intraventricular), the “dose producing analgesia equivalent to morphine” value is given as 10-20 times that of morphine and the duration of analgesia was 10 to 12 min. In addition, the “activity when administered systemically” value in [6] was “virtually inactive”.

Take “H--Tyr--Gly--Gly--Phe--Met--OH [Met-enkephalin]”: the “breakdown in blood plasma” value in data set [7] is “broken down”. The “breakdown in blood plasma” value in [8] is on record as “broken down”. In the data set on tail-flick (intraventricular), the “dose producing analgesia equivalent to morphine” value is given as 10-20 times that of morphine and the duration of analgesia is 10 to 12 min. Besides, in data set [6], the “activity when administered systemically” value is “virtually inactive”.
